ChEMBL document CHEMBL5653631, “A Potent and Selective ULK1 Inhibitor Suppresses Autophagy and Sensitizes Cancer Cells to Nutrient Stress” (iScience, 2018)
Blank lines part the entries; values can stand above or below the compound they belong to.

Legend:
[1] = molecular target: Fibroblast growth factor receptor 3 (Homo sapiens) (UniProt P22607); test: Inhibition of human recombinant FGFR3 at 500 nM related to control ULK1
[2] = molecular target: Mitogen-activated protein kinase 8 (Homo sapiens) (UniProt P45983); test: Inhibition of human recombinant JNK1 at 500 nM in presence of ATP by radiometric assay relative to control
Chain of Mitogen-activated protein kinase 8 (Homo sapiens) (P45983 whole entry): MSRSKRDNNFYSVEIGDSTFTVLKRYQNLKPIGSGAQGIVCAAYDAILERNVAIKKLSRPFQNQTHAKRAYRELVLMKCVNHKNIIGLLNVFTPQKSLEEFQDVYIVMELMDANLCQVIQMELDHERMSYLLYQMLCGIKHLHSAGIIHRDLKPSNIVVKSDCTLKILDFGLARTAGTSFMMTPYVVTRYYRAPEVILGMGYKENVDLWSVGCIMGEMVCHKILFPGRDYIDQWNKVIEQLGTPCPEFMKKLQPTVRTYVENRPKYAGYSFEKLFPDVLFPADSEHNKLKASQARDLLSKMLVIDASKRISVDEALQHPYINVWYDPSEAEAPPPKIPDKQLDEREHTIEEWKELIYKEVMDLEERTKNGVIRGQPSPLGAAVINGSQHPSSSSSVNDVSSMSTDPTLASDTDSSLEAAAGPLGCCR

[3] = molecular target: T1, Tribbles homolog 2 (Homo sapiens) (UniProt Q92519); test: Inhibition of human recombinant Trb2 at 500 nM in presence of ATP by radiometric assay relative to control
T1 sequence (whole entry): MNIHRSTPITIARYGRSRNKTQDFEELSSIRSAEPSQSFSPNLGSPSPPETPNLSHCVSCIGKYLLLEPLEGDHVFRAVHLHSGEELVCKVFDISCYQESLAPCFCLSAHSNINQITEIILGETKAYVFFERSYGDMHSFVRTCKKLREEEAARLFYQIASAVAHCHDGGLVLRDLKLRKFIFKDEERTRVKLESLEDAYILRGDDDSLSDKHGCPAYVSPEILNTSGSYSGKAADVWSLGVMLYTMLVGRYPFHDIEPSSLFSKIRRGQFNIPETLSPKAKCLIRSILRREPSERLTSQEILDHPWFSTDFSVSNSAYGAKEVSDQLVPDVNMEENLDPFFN

[4] = molecular target: T2, Serine/threonine-protein kinase Sgk2 (Homo sapiens) (UniProt Q9HBY8); test: Inhibition of human recombinant SGK2 at 500 nM in presence of ATP by radiometric assay relative to control
T2 sequence (whole entry): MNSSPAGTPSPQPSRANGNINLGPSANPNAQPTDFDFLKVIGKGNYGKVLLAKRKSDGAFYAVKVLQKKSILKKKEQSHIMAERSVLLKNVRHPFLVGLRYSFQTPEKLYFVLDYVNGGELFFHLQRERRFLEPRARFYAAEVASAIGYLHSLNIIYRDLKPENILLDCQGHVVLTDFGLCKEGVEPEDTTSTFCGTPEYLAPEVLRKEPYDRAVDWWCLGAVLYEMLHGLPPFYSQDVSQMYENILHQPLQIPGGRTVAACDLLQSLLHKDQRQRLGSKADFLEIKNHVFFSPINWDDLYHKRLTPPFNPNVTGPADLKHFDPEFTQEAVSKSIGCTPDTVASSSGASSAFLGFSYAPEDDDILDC

[5] = molecular target: Interferon-induced, double-stranded RNA-activated protein kinase (Homo sapiens) (UniProt P19525); test: Inhibition of human recombinant PKR at 40 nM related to control ULK1
Chain of Interferon-induced, double-stranded RNA-activated protein kinase (Homo sapiens) (P19525 whole entry): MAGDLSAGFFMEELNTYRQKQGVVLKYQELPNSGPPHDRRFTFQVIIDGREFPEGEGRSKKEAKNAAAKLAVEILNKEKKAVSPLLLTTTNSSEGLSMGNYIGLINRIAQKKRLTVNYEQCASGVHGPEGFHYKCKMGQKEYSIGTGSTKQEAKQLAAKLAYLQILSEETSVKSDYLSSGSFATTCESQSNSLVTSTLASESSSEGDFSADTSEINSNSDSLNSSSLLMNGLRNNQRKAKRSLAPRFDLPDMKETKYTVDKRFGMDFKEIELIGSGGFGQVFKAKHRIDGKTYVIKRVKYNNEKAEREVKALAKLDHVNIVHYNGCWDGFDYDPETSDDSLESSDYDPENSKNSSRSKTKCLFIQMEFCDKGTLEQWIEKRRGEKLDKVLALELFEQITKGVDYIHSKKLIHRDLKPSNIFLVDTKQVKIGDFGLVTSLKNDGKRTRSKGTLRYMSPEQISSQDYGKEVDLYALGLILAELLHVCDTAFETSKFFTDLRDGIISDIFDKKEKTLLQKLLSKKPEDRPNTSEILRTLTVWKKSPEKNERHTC

[6] = molecular target: T3, Eukaryotic translation initiation factor 2-alpha kinase 3 (Homo sapiens) (UniProt Q9NZJ5); test: Inhibition of human recombinant PEK at 40 nM related to control ULK1
T3 sequence (whole entry): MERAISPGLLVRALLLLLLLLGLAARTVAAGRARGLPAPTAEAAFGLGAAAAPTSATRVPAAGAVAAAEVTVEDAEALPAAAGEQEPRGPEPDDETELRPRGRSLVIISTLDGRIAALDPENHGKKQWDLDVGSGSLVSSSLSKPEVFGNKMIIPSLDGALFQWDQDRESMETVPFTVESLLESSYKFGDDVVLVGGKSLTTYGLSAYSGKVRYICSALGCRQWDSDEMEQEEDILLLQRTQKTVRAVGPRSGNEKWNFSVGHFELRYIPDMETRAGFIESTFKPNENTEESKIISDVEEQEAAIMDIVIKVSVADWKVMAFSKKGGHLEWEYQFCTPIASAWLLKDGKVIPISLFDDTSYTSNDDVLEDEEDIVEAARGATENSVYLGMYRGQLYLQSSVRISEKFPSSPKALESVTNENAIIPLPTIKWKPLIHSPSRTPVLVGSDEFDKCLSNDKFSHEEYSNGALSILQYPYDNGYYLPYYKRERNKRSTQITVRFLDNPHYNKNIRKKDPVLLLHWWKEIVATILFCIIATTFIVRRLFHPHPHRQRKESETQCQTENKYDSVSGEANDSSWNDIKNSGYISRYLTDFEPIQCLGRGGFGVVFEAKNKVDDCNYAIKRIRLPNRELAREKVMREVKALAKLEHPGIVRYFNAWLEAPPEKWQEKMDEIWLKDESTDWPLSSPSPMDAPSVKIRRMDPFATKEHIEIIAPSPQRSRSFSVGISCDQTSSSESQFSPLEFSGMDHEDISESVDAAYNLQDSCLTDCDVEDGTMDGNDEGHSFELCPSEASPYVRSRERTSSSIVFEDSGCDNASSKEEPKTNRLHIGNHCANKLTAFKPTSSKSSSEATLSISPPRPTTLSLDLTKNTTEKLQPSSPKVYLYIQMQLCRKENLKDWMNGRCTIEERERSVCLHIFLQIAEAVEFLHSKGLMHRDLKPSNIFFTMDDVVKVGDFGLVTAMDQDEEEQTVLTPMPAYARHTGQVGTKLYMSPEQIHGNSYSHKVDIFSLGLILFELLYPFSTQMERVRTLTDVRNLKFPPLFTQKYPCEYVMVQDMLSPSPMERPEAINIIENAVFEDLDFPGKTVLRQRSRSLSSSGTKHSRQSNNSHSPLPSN

[7] = molecular target: Serine/threonine-protein kinase pim-2 (Homo sapiens) (UniProt Q9P1W9); test: Inhibition of human recombinant PIM2 at 40 nM in presence of ATP by radiometric assay relative to control
Chain of Serine/threonine-protein kinase pim-2 (Homo sapiens) (Q9P1W9 whole entry, looked up): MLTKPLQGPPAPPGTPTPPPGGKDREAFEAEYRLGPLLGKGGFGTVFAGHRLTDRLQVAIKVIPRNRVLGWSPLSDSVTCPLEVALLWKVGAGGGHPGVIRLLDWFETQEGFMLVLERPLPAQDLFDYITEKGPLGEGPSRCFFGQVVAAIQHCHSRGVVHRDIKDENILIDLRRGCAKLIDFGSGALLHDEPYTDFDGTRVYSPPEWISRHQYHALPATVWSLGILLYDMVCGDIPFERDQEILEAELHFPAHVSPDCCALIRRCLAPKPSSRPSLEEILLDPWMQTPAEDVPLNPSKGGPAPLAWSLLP

[8] = molecular target: T4, MAPK/MAK/MRK overlapping kinase (Homo sapiens) (UniProt Q9UQ07); test: Inhibition of human recombinant MOK at 40 nM in presence of ATP by radiometric assay relative to control
T4 sequence (whole entry): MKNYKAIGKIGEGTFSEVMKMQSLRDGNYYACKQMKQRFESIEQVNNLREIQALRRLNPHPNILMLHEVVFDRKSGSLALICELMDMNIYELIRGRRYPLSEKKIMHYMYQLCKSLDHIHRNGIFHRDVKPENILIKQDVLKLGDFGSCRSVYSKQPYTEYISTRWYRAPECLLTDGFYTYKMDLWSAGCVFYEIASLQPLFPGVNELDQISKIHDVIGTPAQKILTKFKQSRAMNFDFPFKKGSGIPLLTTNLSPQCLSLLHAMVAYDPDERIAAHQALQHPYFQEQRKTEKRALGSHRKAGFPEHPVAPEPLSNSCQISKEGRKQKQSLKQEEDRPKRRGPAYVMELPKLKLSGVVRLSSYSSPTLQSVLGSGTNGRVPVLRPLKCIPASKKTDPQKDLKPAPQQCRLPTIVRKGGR

[9] = molecular target: Serine/threonine-protein kinase tousled-like 2 (Homo sapiens) (UniProt Q86UE8); test: Inhibition of human recombinant TLK2 at 15 nM in presence of ATP by radiometric assay relative to control
Chain of Serine/threonine-protein kinase tousled-like 2 (Homo sapiens) (Q86UE8 whole entry, looked up, the tested form may be a part): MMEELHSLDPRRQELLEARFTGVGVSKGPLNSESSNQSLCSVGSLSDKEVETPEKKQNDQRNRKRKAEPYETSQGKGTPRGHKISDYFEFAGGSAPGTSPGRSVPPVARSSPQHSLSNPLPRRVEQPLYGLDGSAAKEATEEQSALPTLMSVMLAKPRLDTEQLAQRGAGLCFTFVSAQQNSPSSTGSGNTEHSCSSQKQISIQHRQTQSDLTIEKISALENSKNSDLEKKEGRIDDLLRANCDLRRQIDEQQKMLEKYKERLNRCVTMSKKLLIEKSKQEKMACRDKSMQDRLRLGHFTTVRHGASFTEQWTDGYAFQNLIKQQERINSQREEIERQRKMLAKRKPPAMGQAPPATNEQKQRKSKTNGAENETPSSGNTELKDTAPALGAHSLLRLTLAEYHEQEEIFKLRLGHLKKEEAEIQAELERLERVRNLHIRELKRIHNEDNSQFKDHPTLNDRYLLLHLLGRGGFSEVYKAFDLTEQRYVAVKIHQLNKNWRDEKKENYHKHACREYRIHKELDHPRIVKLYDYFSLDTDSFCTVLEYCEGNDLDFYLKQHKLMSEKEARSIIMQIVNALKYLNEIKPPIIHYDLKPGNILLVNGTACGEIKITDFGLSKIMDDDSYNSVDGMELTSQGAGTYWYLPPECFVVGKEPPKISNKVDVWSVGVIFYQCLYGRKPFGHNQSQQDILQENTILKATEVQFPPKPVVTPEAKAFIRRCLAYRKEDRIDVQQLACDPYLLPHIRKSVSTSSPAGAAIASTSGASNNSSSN

[10] = molecular target: LIM domain kinase 1 (Homo sapiens) (UniProt P53667); test: Inhibition of human recombinant LIMK1 at 15 nM in presence of ATP by radiometric assay relative to control
Chain of LIM domain kinase 1 (Homo sapiens) (P53667 whole entry, looked up, the tested form may be a part): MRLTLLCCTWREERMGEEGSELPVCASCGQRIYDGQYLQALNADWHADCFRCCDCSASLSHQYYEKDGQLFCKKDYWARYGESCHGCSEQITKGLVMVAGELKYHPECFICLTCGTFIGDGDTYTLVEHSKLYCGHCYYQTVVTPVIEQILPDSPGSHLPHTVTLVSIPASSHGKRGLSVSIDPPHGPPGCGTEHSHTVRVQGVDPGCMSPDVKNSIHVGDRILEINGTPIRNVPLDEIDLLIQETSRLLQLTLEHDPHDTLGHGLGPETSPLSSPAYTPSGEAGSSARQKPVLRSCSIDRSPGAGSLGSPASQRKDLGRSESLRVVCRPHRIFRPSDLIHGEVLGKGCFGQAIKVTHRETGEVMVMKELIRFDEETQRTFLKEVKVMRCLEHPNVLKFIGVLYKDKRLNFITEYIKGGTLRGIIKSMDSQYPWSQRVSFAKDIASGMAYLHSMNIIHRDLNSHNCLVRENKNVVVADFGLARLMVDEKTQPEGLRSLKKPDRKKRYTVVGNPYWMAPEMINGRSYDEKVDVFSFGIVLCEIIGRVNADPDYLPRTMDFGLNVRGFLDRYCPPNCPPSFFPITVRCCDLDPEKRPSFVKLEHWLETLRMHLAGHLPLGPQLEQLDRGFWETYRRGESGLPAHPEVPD

[11] = molecular target: Tyrosine-protein kinase Blk (Homo sapiens) (UniProt P51451); test: Inhibition of human recombinant BLK at 15 nM related to control ULK1
Chain of Tyrosine-protein kinase Blk (Homo sapiens) (P51451 2-505 limits assumed): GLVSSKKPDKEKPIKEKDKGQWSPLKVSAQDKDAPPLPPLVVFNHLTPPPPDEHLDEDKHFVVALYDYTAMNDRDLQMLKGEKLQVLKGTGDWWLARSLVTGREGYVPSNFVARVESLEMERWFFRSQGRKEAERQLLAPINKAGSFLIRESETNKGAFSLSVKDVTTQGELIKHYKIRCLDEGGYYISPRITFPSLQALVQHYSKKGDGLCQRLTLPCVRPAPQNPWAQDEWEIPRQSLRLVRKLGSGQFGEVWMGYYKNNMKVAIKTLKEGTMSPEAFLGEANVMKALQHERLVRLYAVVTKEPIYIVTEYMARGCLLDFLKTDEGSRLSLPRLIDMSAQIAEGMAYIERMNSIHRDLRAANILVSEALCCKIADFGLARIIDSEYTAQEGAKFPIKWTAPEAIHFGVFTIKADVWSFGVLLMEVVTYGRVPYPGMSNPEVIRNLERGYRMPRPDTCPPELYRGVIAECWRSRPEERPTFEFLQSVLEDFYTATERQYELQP

[12] = molecular target: Aurora kinase B (Homo sapiens) (UniProt Q96GD4); test: Inhibition of human recombinant AurB at 15 nM related to control ULK1
Chain of Aurora kinase B (Homo sapiens) (Q96GD4 whole entry): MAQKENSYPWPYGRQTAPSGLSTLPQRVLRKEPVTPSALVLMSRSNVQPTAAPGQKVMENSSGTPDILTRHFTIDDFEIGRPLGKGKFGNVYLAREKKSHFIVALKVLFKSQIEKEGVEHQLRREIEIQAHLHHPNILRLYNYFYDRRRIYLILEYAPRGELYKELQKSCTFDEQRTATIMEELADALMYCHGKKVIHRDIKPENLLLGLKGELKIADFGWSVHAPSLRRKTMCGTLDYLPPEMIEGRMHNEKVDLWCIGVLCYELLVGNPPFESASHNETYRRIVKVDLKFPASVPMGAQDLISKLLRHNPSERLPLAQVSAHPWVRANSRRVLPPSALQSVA

Chain of Fibroblast growth factor receptor 3 (Homo sapiens) (P22607 23-806 limits assumed): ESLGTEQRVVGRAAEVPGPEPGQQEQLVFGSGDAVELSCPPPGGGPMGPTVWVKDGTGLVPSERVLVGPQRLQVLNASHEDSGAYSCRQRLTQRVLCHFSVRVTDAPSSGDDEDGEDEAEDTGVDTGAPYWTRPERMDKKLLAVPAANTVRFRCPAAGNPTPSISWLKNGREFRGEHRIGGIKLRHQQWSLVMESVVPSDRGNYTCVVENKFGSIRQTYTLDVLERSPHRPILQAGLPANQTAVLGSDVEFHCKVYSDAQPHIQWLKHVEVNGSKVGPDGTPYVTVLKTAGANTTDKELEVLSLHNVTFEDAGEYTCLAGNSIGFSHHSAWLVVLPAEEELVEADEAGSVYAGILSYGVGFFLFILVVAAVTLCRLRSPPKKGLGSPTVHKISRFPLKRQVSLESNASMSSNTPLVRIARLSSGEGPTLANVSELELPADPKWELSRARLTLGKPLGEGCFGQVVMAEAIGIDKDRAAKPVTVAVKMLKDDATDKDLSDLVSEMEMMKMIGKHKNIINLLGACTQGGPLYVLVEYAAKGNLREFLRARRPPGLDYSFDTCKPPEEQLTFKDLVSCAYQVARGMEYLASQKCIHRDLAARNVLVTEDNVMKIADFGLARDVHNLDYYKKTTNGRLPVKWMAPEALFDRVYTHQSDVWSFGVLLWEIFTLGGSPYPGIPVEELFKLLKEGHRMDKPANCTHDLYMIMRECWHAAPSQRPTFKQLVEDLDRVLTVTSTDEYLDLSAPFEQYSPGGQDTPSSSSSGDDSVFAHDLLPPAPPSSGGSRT

fold change (FC) [1]: 0.57
inhibition [2]: 1%
inhibition [3]: 0%
inhibition [4]: 17%
SMILES: CNC(=O)c1ccccc1Oc1nc(Nc2cc(OC)c(OC)c(OC)c2)ncc1Br

fold change (FC) [5]: 0
fold change (FC) [6]: 0
inhibition [7]: 3%
inhibition [8]: 0%
SMILES: O=C(N[C@@H](C1CC1)C(F)(F)F)c1cc(-c2cnn3cc(-c4ccc(F)cc4)cnc23)cs1

inhibition [9]: 3%
inhibition [10]: 56%
fold change (FC) [11]: 0.11
fold change (FC) [12]: 0.2
SMILES: CC(C)[C@H](NC(=O)c1cc(-c2cnn3cc(-c4ccc(OCCN5CCCCC5)cc4)cnc23)cs1)C(F)(F)F
